# Laboratory results reported in ChEMBL document CHEMBL3045760, “Bioactive xanthones with effect on P-glycoprotein and prediction of intestinal absorption” (Med Chem Res, 2013).
# Activity calls are given as the source filed them. The rule behind the calls is not given here.
# Experiments:
# [1] = target: T1, ATP-dependent translocase ABCB1 (Homo sapiens, UniProt P08183); assay: Activation of P-glycoprotein in doxorubicin-resistant Homo sapiens (human) K562 cells overexpressing P-gp assessed as decrease in intracellular Rh123 accumulation at 10 to 20 uM after 1 hr by flow cytometric analysis; format: cell-based; details: k562, 1 h
# T1 sequence (P08183 whole entry): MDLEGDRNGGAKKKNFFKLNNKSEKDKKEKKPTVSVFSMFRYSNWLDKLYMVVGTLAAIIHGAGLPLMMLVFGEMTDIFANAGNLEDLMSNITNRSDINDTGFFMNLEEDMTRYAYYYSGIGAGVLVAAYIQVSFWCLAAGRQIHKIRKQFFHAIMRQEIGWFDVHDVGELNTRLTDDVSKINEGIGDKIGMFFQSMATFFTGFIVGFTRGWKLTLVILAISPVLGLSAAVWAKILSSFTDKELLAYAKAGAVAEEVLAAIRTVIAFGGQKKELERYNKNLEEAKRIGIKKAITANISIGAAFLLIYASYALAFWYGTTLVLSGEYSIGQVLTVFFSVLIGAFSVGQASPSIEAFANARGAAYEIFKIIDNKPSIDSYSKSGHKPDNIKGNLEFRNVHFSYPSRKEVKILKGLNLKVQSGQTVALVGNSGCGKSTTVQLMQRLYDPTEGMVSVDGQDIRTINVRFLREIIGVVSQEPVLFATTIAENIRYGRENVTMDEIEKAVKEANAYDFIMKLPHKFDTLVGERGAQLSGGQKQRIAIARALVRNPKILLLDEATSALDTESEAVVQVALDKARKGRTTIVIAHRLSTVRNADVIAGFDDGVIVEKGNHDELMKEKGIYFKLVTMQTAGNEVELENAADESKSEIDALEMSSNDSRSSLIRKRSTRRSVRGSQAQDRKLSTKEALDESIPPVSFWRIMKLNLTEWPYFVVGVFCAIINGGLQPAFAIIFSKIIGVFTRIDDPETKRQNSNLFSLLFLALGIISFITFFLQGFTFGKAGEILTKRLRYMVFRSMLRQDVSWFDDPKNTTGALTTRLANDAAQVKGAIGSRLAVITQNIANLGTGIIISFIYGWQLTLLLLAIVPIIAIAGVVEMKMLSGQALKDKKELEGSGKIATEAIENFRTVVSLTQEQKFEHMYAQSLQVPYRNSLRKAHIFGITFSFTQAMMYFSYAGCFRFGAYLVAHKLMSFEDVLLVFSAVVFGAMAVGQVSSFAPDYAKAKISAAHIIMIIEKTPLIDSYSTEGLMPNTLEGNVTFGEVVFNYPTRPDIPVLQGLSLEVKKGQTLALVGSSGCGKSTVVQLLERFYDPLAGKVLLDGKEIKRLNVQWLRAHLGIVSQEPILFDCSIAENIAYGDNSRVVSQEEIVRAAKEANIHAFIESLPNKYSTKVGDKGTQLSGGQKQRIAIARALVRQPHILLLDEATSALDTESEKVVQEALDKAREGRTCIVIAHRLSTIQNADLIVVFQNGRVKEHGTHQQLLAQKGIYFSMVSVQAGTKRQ
# [2] = (§1) Drug recovery in Homo sapiens (human) Caco2 cells at 100 uM by HPLC-UV analysis; format: ADME, cell-based, Caco-2; details: Caco-2, read-out: Drug recovery
# [3] = Apparent permeability from apical to basolateral side of Homo sapiens (human) Caco2 cells at 100 uM by HPLC-UV analysis; format: ADME, cell-based; details: Caco-2
# Homo sapiens = species: Homo sapiens; assay: Non-competitive inhibition of Homo sapiens (human) P-glycoprotein ATPase activity at 200 uM after 40 min by luminescence analysis
# [4] = target: T1, ATP-dependent translocase ABCB1; assay: Inhibition of P-glycoprotein in doxorubicin-resistant Homo sapiens (human) K562 cells overexpressing P-gp assessed as increase in intracellular Rh123 accumulation at 10 to 20 uM after 1 hr by flow cytometric analysis; format: cell-based; details: k562, 1 h
# Caco-2 = assay: as §1; format: ADME, cell-based; details: caco-2, 100 µM
Structure (SMILES),Activity [1],recovery at 100 µM [2] [%],Papp A→B at 100 µM [3] [×10⁻⁶ cm/s],inhibition (Homo sapiens),inhibition (INH) [4],Drug recovery (Caco-2) [%]
COc1cc(C2Oc3ccc4c(=O)c5ccccc5oc4c3OC2CO)ccc1O (stereo not given),–,–,14.4,Active,Active,164.7
COc1ccc(CCN(C)CCCC(C#N)(c2ccc(OC)c(OC)c2)C(C)C)cc1OC (stereo not given),–,–,–,–,Active,–

# Second part, the molecule after the results:
Activity [1],recovery at 100 µM [2] [%],Papp A→B at 100 µM [3] [×10⁻⁶ cm/s],inhibition (Homo sapiens),inhibition (INH) [4],Drug recovery (Caco-2) [%],Structure (SMILES)
Active,53.6,19.4,–,–,–,"O=c1c2ccccc2oc2c(O)c(O)ccc12 [3,4-DIHYDROXYXANTHONE]"
–,29.4,14.2,Active,Active,–,CC1(C)CCc2cc3c(=O)c4ccccc4oc3c(O)c2O1
Active,40.7,15.2,–,–,–,O=c1c2ccccc2oc2ccc(O)c(O)c12
